Where “and” joins values, the source holds several entries; their conditions need not be identical. Equal entries are not always repeated. Numbers after ± are expanded uncertainties.
Assay: xn = mol fraction of the nth substance listed
Conditions: 100 kPa; for electrical conductivity: Alternating current cell with electrodes; for viscosity: Concentric cylinders viscometry; for mass density: Vibrating tube method

## CCCCCCCCOS(=O)(=O)[O-].CCn1cc[n+](C)c1 [1-ethyl-3-methylimidazolium octyl sulfate] + O
287.1 K, Liquid, x1 = 0.3076
  electrical conductivity: 0.375 S/m and 0.377 S/m
  viscosity: 169.3 ± 13 mPa·s
  mass density: 1091.2 ± 1 kg/m3
287.1 K, Liquid, x1 = 0.1402
  mass density: 1076.8 ± 1 kg/m3
287.1 K, Liquid, x1 = 0.1605
  mass density: 1079.2 ± 1 kg/m3
287.1 K, Liquid, x1 = 0.2632
  mass density: 1088.7 ± 1 kg/m3
287.6 K, Glass, x1 = 0.2632
  electrical conductivity: 0.469 ± 0.01 S/m
  viscosity: 10720 ± 3600 mPa·s and 11920 ± 4200 mPa·s
287.6 K, Liquid, x1 = 0.2632
  mass density: 1088.5 ± 1 kg/m3 and 1088.8 ± 1 kg/m3
288.1 K, Glass, x1 = 0.1766
  electrical conductivity: 0.844 S/m and 0.846 S/m
288.1 K, Glass, x1 = 0.2119
  electrical conductivity: 0.682 S/m and 0.681 S/m
288.1 K, Glass, x1 = 0.2632
  electrical conductivity: 0.48 S/m and 0.478 S/m
  viscosity: 8600 ± 2600 mPa·s
288.1 K, Glass, x1 = 0.1402
  viscosity: 1042 ± 130 mPa·s
288.1 K, Glass, x1 = 0.1605
  viscosity: 13780 ± 5200 mPa·s and 15800 ± 6400 mPa·s
288.1 K, Liquid, x1 = 0.0401
  electrical conductivity: 1.7 S/m
288.1 K, Liquid, x1 = 0.0586
  electrical conductivity: 1.67 ± 0.035 S/m
288.1 K, Liquid, x1 = 0.0803
  electrical conductivity: 1.51 ± 0.031 S/m
288.1 K, Liquid, x1 = 0.1402
  electrical conductivity: 1.03 ± 0.022 S/m
  mass density: 1076 ± 1 kg/m3
288.1 K, Liquid, x1 = 0.1605
  electrical conductivity: 0.932 S/m and 0.934 S/m
  mass density: 1078.8 ± 1 kg/m3 and 1078.7 ± 1 kg/m3
288.1 K, Liquid, x1 = 0.3076
  electrical conductivity: 0.389 S/m and 0.388 S/m
  viscosity: 159.4 ± 12 mPa·s
  mass density: 1090.5 ± 1 kg/m3
288.1 K, Liquid, x1 = 0.3555
  electrical conductivity: 0.293 S/m and 0.294 S/m
  viscosity: 183.7 ± 14 mPa·s
  mass density: 1092.7 ± 1 kg/m3
288.1 K, Liquid, x1 = 0.4108
  electrical conductivity: 0.24 S/m and 0.237 S/m
  viscosity: 206.8 ± 16 mPa·s
  mass density: 1094.5 ± 1 kg/m3
288.1 K, Liquid, x1 = 0.4688
  electrical conductivity: 0.166 S/m and 0.159 S/m
288.1 K, Liquid, x1 = 0.5001
  electrical conductivity: 0.15 ± 0.004 S/m
288.1 K, Liquid, x1 = 0.1197
  viscosity: 78.76 ± 5.2 mPa·s
  mass density: 1072.5 ± 1 kg/m3
288.1 K, Liquid, x1 = 0.2632
  mass density: 1088.3 ± 1 kg/m3
288.6 K, Glass, x1 = 0.2632
  electrical conductivity: 0.485 ± 0.01 S/m
289.1 K, Glass, x1 = 0.1766
  electrical conductivity: 0.868 S/m and 0.871 S/m
289.1 K, Glass, x1 = 0.2632
  electrical conductivity: 0.489 ± 0.01 S/m
  viscosity: 3435 ± 680 mPa·s
289.1 K, Glass, x1 = 0.1402
  viscosity: 396.1 ± 36 mPa·s
289.1 K, Glass, x1 = 0.1605
  viscosity: 8364 ± 2500 mPa·s and 8406 ± 2500 mPa·s
289.1 K, Liquid, x1 = 0.1197
  electrical conductivity: 1.21 ± 0.025 S/m
289.1 K, Liquid, x1 = 0.1402
  electrical conductivity: 1.06 ± 0.022 S/m
  mass density: 1074.9 ± 1 kg/m3
289.1 K, Liquid, x1 = 0.1605
  electrical conductivity: 0.964 S/m and 0.963 S/m
  mass density: 1078.4 ± 1 kg/m3
289.1 K, Liquid, x1 = 0.2632
  electrical conductivity: 0.494 ± 0.015 S/m
  mass density: 1087.8 ± 1 kg/m3
289.1 K, Liquid, x1 = 0.3076
  viscosity: 150 ± 11 mPa·s
  mass density: 1089.8 ± 1 kg/m3
289.6 K, Glass, x1 = 0.2632
  viscosity: 1082 ± 130 mPa·s
289.6 K, Liquid, x1 = 0.2632
  electrical conductivity: 0.503 ± 0.018 S/m
  mass density: 1087.9 ± 1 kg/m3
290.1 K, Glass, x1 = 0.1766
  electrical conductivity: 0.895 S/m and 0.899 S/m
290.1 K, Glass, x1 = 0.2119
  electrical conductivity: 0.728 ± 0.016 S/m
290.1 K, Glass, x1 = 0.1402
  viscosity: 213.6 ± 16 mPa·s
290.1 K, Glass, x1 = 0.1605
  viscosity: 5299 ± 1300 mPa·s and 4500 ± 1000 mPa·s
290.1 K, Liquid, x1 = 0.2632
  electrical conductivity: 0.511 ± 0.019 S/m
290.1 K, Liquid, x1 = 0.3076
  viscosity: 141.3 ± 10 mPa·s
  mass density: 1089.1 ± 1 kg/m3
290.1 K, Liquid, x1 = 0.1402
  mass density: 1074.2 ± 1 kg/m3
290.1 K, Liquid, x1 = 0.1605
  mass density: 1077.9 ± 1 kg/m3 and 1078 ± 1 kg/m3
291.1 K, Glass, x1 = 0.1766
  electrical conductivity: 0.924 S/m and 0.925 S/m
291.1 K, Glass, x1 = 0.2119
  electrical conductivity: 0.759 S/m and 0.757 S/m
291.1 K, Glass, x1 = 0.1402
  viscosity: 122.8 ± 8.6 mPa·s
291.1 K, Glass, x1 = 0.1605
  viscosity: 2756 ± 490 mPa·s and 2752 ± 490 mPa·s
291.1 K, Liquid, x1 = 0.0803
  electrical conductivity: 1.63 ± 0.034 S/m
291.1 K, Liquid, x1 = 0.1402
  electrical conductivity: 1.12 ± 0.024 S/m
  mass density: 1073.7 ± 1 kg/m3
291.1 K, Liquid, x1 = 0.1605
  electrical conductivity: 1.02 ± 0.021 S/m
  mass density: 1077.5 ± 1 kg/m3
291.1 K, Liquid, x1 = 0.2632
  electrical conductivity: 0.527 ± 0.011 S/m
  viscosity: 118.9 ± 8.3 mPa·s
  mass density: 1085.5 ± 1 kg/m3
291.1 K, Liquid, x1 = 0.3076
  electrical conductivity: 0.441 S/m and 0.442 S/m
  viscosity: 133.1 ± 9.4 mPa·s
  mass density: 1088.1 ± 1 kg/m3
291.1 K, Liquid, x1 = 0.3555
  electrical conductivity: 0.332 ± 0.007 S/m
291.1 K, Liquid, x1 = 0.4108
  electrical conductivity: 0.271 ± 0.006 S/m
291.1 K, Liquid, x1 = 0.4688
  electrical conductivity: 0.192 ± 0.004 S/m
292.1 K, Glass, x1 = 0.1766
  electrical conductivity: 0.951 S/m and 0.953 S/m
292.1 K, Glass, x1 = 0.2119
  electrical conductivity: 0.779 S/m and 0.781 S/m
292.1 K, Glass, x1 = 0.1605
  viscosity: 1353 ± 180 mPa·s and 597.3 ± 60 mPa·s
292.1 K, Liquid, x1 = 0.2632
  electrical conductivity: 0.543 ± 0.014 S/m
292.1 K, Liquid, x1 = 0.1402
  viscosity: 80.8 ± 5.3 mPa·s
  mass density: 1073.2 ± 1 kg/m3
292.1 K, Liquid, x1 = 0.1605
  mass density: 1076.9 ± 1 kg/m3 and 1076.7 ± 1 kg/m3
293.1 K, Glass, x1 = 0.1766
  electrical conductivity: 0.977 S/m and 0.979 S/m
293.1 K, Glass, x1 = 0.2119
  electrical conductivity: 0.805 ± 0.017 S/m
293.1 K, Glass, x1 = 0.1605
  viscosity: 589.1 ± 59 mPa·s and 232.2 ± 18 mPa·s
293.1 K, Liquid, x1 = 0.0401
  electrical conductivity: 1.92 S/m
293.1 K, Liquid, x1 = 0.0586
  electrical conductivity: 1.91 ± 0.039 S/m
293.1 K, Liquid, x1 = 0.0803
  electrical conductivity: 1.72 ± 0.036 S/m
293.1 K, Liquid, x1 = 0.1197
  electrical conductivity: 1.36 ± 0.029 S/m
  viscosity: 59.82 ± 3.9 mPa·s
293.1 K, Liquid, x1 = 0.1402
  electrical conductivity: 1.19 ± 0.025 S/m
  viscosity: 69.89 ± 4.6 mPa·s
293.1 K, Liquid, x1 = 0.1605
  electrical conductivity: 1.08 S/m
293.1 K, Liquid, x1 = 0.2119
  electrical conductivity: 0.804 ± 0.017 S/m
293.1 K, Liquid, x1 = 0.2632
  electrical conductivity: 0.564 S/m and 0.562 S/m
  viscosity: 106.4 ± 7.3 mPa·s
293.1 K, Liquid, x1 = 0.3076
  electrical conductivity: 0.477 S/m and 0.479 S/m
  viscosity: 117.6 ± 8.1 mPa·s
293.1 K, Liquid, x1 = 0.3555
  electrical conductivity: 0.357 S/m and 0.359 S/m
293.1 K, Liquid, x1 = 0.4108
  electrical conductivity: 0.294 S/m and 0.293 S/m
293.1 K, Liquid, x1 = 0.4688
  electrical conductivity: 0.214 ± 0.005 S/m
293.1 K, Liquid, x1 = 0.5001
  electrical conductivity: 0.19 S/m and 0.191 S/m
